According to patent US8912146B2, “Derivatives of APF and methods of use” (University of Maryland, Baltimore, priority 2008, dated 2014):
Entries after “also recorded” stand apart in the source; their conditions may differ. Where a SMILES comes first, the peptide text is derived from it. [ ]: non-standard residue; d: D form. The star is where a group is joined. ξ: configuration not given here. X1 = CC(=O)NC1C(O[C@@H]2OC(CO)[C@H](O)C(O)C2O)[C@@H](O)C(CO)O[C@@H]1*; Thr(3ξ) = CC(O)[C@H](N)C(=O)O; ξI = CCC(C)C(N)C(=O)O; ξV = CC(C)C(N)C(=O)O; ξA = CC(N)C(=O)O

How the values were obtained:
[1] = tested on: primary normal human bladder epithelial cells; assay: 3H-thymidine incorporation (antiproliferative activity) in primary normal bladder epithelial cells; type: cell-based; conditions: for % of activity: relative to 1 (as-APF) run on the same plate, from IC50, inactive = no significant activity at <25 μM
Experimental: Cell Culture. Cystoscopy was performed under general anesthesia, and 4-mm^2 pieces of transitional epithelium with submucosal bladder tissue were obtained for the growth of primary bladder epithelial cells, as previously described (Keay et al., 1996; 2004). Primary normal bladder epithelial cells were propagated in DMEM-F12 (Media-Tech, Herndon Va.) with 10% heat-inactivated fetal bovine serum (FBS), 1% antibiotic/antimycotic solution, 1% L-glutamine, 0.25 units/mL insulin (all from Sigma, St. Louis, Mo.), and 5 ng/mL hEGF (R&D Systems, Minneapolis, Minn.) at 37° C. in a 5% CO2 atmosphere and characterized by binding of AE-1/AE-3 pancytokeratin antibodies (Signet, Dedham, Mass.).
^3H-Thymidine Incorporation. Cell proliferation was measured by ^3H-thymidine incorporation into explanted normal human bladder epithelial cells, plating 1.5×10^4 cells/well onto a 96 well cell culture plate (VWR 29442-054), in 150 ul/well MEM containing 10% heat inactivated FBS, 1% antibiotic/antimycotic solution, and 1% L-glutamine (all from Sigma), resulting in a doubling time of 48-72 hours, as previously described (Keay et al., 1996; 2004). Each purified lyophilized synthetic APF congener was resuspended in acetonitrile/distilled water (1:1), and applied to the cells in serum-free MEM (containing only L-glutamine and antibiotics/antimycotics); cell controls received acetonitrile/distilled water diluted in serum-free MEM alone. Cells were then incubated at 37° C. in a 5% CO2 atmosphere for 48 hours. The cell contents harvested and methanol-fixed onto glass fiber filter paper, and the amount of radioactivity incorporated determined. Significant inhibition of ^3H-thymidine incorporation was defined as a mean decrease in counts per minute of greater than 2 standard deviations from the mean of control cells for each plate. Inhibition of cell proliferation was determined from a semi-log plot of dose-response for each APF derivative; IC50 was determined as the concentration of each derivative that caused a mean 50% inhibition of thymidine incorporation as compared to the mean of untreated cell controls.
Statistical Analysis. The thymidine incorporation (APF biological activity) assay was performed in triplicate on at least two separate runs, with 1 run simultaneously in triplicate on the same plate. The significance of the difference between mean values for each congener vs. mean values for compound 1 was determined by an analysis of variance.

[2] = tested on: primary normal human bladder epithelial cells; conditions: Keay et al., 2004; cited from earlier work
Hs839.T melanoma cells = assay: 3H-thymidine incorporation in melanoma cells; type: cell-based; conditions: 48 hrs, compared to cell medium alone (p<0.00001); listed as negative control peptide
Experimental: Ovarian carcinoma (Caov-3), prostate carcinoma (LNCaP), melanoma (Hs839.T), pancreatic carcinoma (PANC-1), bladder carcinoma (T24, RT4 and TCCSuP), kidney carcinoma (ACHN), cervical carcinoma (HeLa), lung carcinoma (A549), colon carcinoma (WiDr), and breast carcinoma (Bt-474) cells were all purchased from the American Type Culture Collection (ATCC). Caov-3, HS839.T, PANC-1, and BT-474 cells were grown in DMEM medium (with 4 mM L-glutamine—Gibco BRL) containing 10% heat-inactivated fetal calf serum, 4.5 g/L glucose, 1.5 g/L sodium bicarbonate and 1% antibiotic/antimycotic solution (all supplements from Sigma except sodium bicarbonate which is from Gibco BRL). LNCaP cells were grown in RPMI medium (with 2 mM L-glutamine—Gibco BRL) containing10% heat-incativated fetal calf serum, 10 mM HEPES buffer, 1 mM sodium pyruvate, 4.5 g/L glucose, 1.5 g/L sodium bicarbonate, and 1% antibiotic/antimycotic solution (all supplements from Sigma except sodium bicarbonate which is from Gibco BRL). T24 and RT4 cells were grown in McCoy's 5A medium (Gibco BRL) containing 10% heat-inactivated fetal calf serum, 1% L-glutamine, 2.2 g/L sodium bicarbonate, and 1% antibiotic/antimycotic solution (all supplements from Sigma except sodium bicarbonate which is from Gibco BRL). TCCSuP, HeLa, and WiDr cells were grown in MEM (Gibco BRL) containing 10% heat-inactivated fetal calf serum, 1% L-glutamine, 1 mM sodium pyruvate, and 1% antibiotic/antimycotic solution (all supplements from Sigma). ACHN cells were grown in the same medium as TCCSuP and HeLa cells with the exception that it also contained 1.5 g/L sodium bicarbonate (Gibco BRL). A549 cells were grown in F12 medium (Gibco BRL) containing 10% heat-inactivated fetal calf serum, 1% L-glutamine, and 1% antibiotic/antimycotic solution (all supplements from Sigma).
Cancer (carcinoma or melanoma) cell proliferation was measured by ^3H-thymidine incorporation into each type of cancer cell, plating 3.0×10^3 cells/well (A549 cells) or 1.5×10^3 cells/well (all other cancer cells) onto a 96 well cell culture plate (VWR 29442-054), in 150 ul/well of the respective normal growth medium for each cell type (see above). All APF congeners were resuspended as described for normal bladder epithelial cells, except using the specific serum-free medium appropriate for each cell type, and the remainder of the assay was performed as described for normal bladder cells, above.
(§1) Significance of the difference in mean values between groups was determined by an analysis of variance.
(§2) Cell proliferation was measured by ^3H-thymidine incorporation into each cell type, plating cells in […] of their respective medium (see above) onto a 96-well cell culture plate (Corning, N.Y.) at a predetermined optimal cell density for APF inhibition of cell proliferation: Caov-3, PANC-1, T24, HeLa, and HS839.T cells were plated at a density of 1.5×10^3 cells/well; A549 cells were plated at a density of 3×10^3 cells/well. On the next day, cell growth medium was removed and replaced with serum-free medium appropriate for each cell type. […] Cells were then incubated at 37° C. in a 5% CO2 atmosphere for 48 hours, after which cell contents were harvested, methanol-fixed onto glass fiber filter paper, and the amount of radioactivity incorporated determined. […]

[3] = tested on: carcinoma cell lines (WiDr, HeLa, PANC-1, CaOv3, BT474, ACHN, T24, A549); assay: 3H-thymidine incorporation in carcinoma cell lines; type: cell-based; conditions: 48 hrs, compared to cell medium alone (p<0.00001); listed as negative control peptide
Experimental: Ovarian carcinoma (Caov-3), prostate carcinoma (LNCaP), melanoma (Hs839.T), pancreatic carcinoma (PANC-1), bladder carcinoma (T24, RT4 and TCCSuP), kidney carcinoma (ACHN), cervical carcinoma (HeLa), lung carcinoma (A549), colon carcinoma (WiDr), and breast carcinoma (Bt-474) cells were all purchased from the American Type Culture Collection (ATCC). Caov-3, HS839.T, PANC-1, and BT-474 cells were grown in DMEM medium (with 4 mM L-glutamine—Gibco BRL) containing 10% heat-inactivated fetal calf serum, 4.5 g/L glucose, 1.5 g/L sodium bicarbonate and 1% antibiotic/antimycotic solution (all supplements from Sigma except sodium bicarbonate which is from Gibco BRL). LNCaP cells were grown in RPMI medium (with 2 mM L-glutamine—Gibco BRL) containing10% heat-incativated fetal calf serum, 10 mM HEPES buffer, 1 mM sodium pyruvate, 4.5 g/L glucose, 1.5 g/L sodium bicarbonate, and 1% antibiotic/antimycotic solution (all supplements from Sigma except sodium bicarbonate which is from Gibco BRL). […]
Cancer (carcinoma or melanoma) cell proliferation was measured by ^3H-thymidine incorporation into each type of cancer cell, plating 3.0×10^3 cells/well (A549 cells) or 1.5×10^3 cells/well (all other cancer cells) onto a 96 well cell culture plate (VWR 29442-054), in 150 ul/well of the respective normal growth medium for each cell type (see above). […]
as §1
as §2, with “cells/well.” for “cells/well. On the next day, cell growth medium was removed and replaced with serum-free medium appropriate for each cell type.”

Compound	antiproliferative activity compared with as-APF (1), in words [1]	% of activity [1]	activity in biological antiproliferation assays, previously determined [2]	inhibition of melanoma cell proliferation (Hs839.T melanoma cells)	inhibition of carcinoma cell line proliferation [3]
CC(=O)NC1C(O[C@@H]2OC(CO)[C@H](O)C(O)C2O)[C@@H](O)C(CO)O[C@@H]1OC(C)[C@H](N)C(=O)NC(C(=O)N1CCC[C@H]1C(=O)NC(C)C(=O)N[C@@H](C)C(=O)NC(C(=O)N[C@H](C(=O)NC(C)C(=O)N[C@H](C(=O)O)C(C)C)C(C)C)C(C)C)C(C)C (stereo partly shown) [Derivative 20] (H-[Thr(3ξ)](X1)[ξV]P[ξA]A[ξV]V[ξA]V-OH)	loss of most or all biological activity	inactive	–	–	–
CC(=O)NC1C(O[C@@H]2OC(CO)[C@H](O)C(O)C2O)[C@@H](O)C(CO)O[C@@H]1OC(C)[C@H](N)C(=O)NC(C(=O)N1CCC[C@H]1C(=O)NC(C)C(=O)N[C@@H](C)C(=O)NC(C(=O)N[C@H](C(=O)NC(C(=O)N[C@@H](CC(C)C)C(=O)O)C(C)C)C(C)C)C(C)C)C(C)C (stereo partly drawn) [Derivative 21] (H-[Thr(3ξ)](X1)[ξV]P[ξA]A[ξV]V[ξV]L-OH)	loss of most or all biological activity	0.01%	–	–	–
CC(=O)NC1C(O[C@@H]2OC(CO)[C@H](O)C(O)C2O)[C@@H](O)C(CO)O[C@@H]1OC(C)[C@H](N)C(=O)NC(C(=O)N1CCC[C@H]1C(=O)NC(C)C(=O)N[C@H](C(=O)NC(C(=O)N[C@H](C(=O)NC(C(=O)N[C@@H](C)C(=O)O)C(C)C)C(C)C)C(C)C)C(C)C)C(C)C (stereo partly shown) [Derivative 22] (H-[Thr(3ξ)](X1)[ξV]P[ξA]V[ξV]V[ξV]A-OH)	loss of most or all biological activity	inactive	–	–	–
CC(=O)NC1C(O[C@@H]2OC(CO)[C@H](O)C(O)C2O)[C@@H](O)C(CO)O[C@@H]1OC(C)[C@H](N)C(=O)NC(C(=O)N1CCC[C@H]1C(=O)NC(C)C(=O)N[C@@H](CO)C(=O)NC(C(=O)N[C@H](C(=O)NC(C(=O)N[C@@H](CO)C(=O)O)C(C)C)C(C)C)C(C)C)C(C)C (stereo partly shown) [Derivative 23] (H-[Thr(3ξ)](X1)[ξV]P[ξA]S[ξV]V[ξV]S-OH)	partial inactivation	0.2%	–	–	–
CC(=O)NC1C(O[C@@H]2OC(CO)[C@H](O)C(O)C2O)[C@@H](O)C(CO)O[C@@H]1OC(C)[C@H](N)C(=O)NC(C(=O)N1CCC[C@H]1C(=O)NC(C)C(=O)NCC(=O)NC(C(=O)N[C@H](C(=O)NC(C(=O)NCC(=O)O)C(C)C)C(C)C)C(C)C)C(C)C (stereo partly shown) [Derivative 24] (H-[Thr(3ξ)](X1)[ξV]P[ξA]G[ξV]V[ξV]G-OH)	complete inactivation	inactive	–	–	–
CC(=O)NC1C(O[C@@H]2OC(CO)[C@H](O)C(O)C2O)[C@@H](O)C(CO)O[C@@H]1OC(C)[C@H](N)C(=O)NC(C(=O)N1CCC[C@H]1C(=O)NC(C)C(=O)N[C@@H](C)C(=O)NC(C)C(=O)N[C@@H](C)C(=O)NC(C)C(=O)N[C@@H](C)C(=O)O)C(C)C (stereo partly shown) [Derivative 25] (H-[Thr(3ξ)](X1)[ξV]P[ξA]A[ξA]A[ξA]A-OH)	decreased antiproliferative activity	1%	–	–	–
CC(=O)NC1C(O[C@@H]2OC(CO)[C@H](O)C(O)C2O)[C@@H](O)C(CO)O[C@@H]1OC(C)[C@H](N)C(=O)NC(C(=O)N1CCC[C@H]1C(=O)NC(C)C(=O)N[C@@H](C)C(=O)NCC(=O)NCC(=O)NCC(=O)N[C@@H](C)C(=O)O)C(C)C (stereo partly shown) [Derivative 26] (H-[Thr(3ξ)](X1)[ξV]P[ξA]AGGGA-OH)	complete inactivation of antiproliferative activity	0.01%	–	–	–
CC(=O)NC1C(O[C@@H]2OC(CO)[C@H](O)C(O)C2O)[C@@H](O)C(CO)O[C@@H]1OC(C)[C@H](N)C(=O)NC(C(=O)N1CCC[C@H]1C(=O)NC(C)C(=O)N[C@@H](C)C(=O)NC(C(=O)NC(C(=O)NC(C(=O)N[C@@H](C)C(=O)O)C(C)C)C(C)C)C(C)C)C(C)C (stereo partly shown) [Derivative 27]	complete inactivation of antiproliferative activity	inactive	–	–	–
CCC(C)C(NC(=O)[C@H](C)NC(=O)C(C)NC(=O)[C@@H]1CCCN1C(=O)C(NC(=O)[C@@H](N)C(C)O[C@H]1OC(CO)[C@H](O)C(O[C@@H]2OC(CO)[C@H](O)C(O)C2O)C1NC(C)=O)C(C)C)C(=O)N[C@H](C(=O)NC(C(=O)N[C@@H](C)C(=O)O)C(C)CC)C(C)C (stereo partly shown) [Derivative 28] (H-[Thr(3ξ)](X1)[ξV]P[ξA]A[ξI]V[ξI]A-OH)	complete inactivation of antiproliferative activity	inactive	–	–	–
CC(=O)NC1C(O[C@@H]2OC(CO)[C@H](O)C(O)C2O)[C@@H](O)C(CO)O[C@@H]1OC(C)[C@H](N)C(=O)NC(C(=O)N1CCC[C@H]1C(=O)NC(C)C(=O)N[C@@H](C)C(=O)NC(C(=O)N[C@H](C(=O)NC(C(=O)N[C@@H](C)C(=O)O)C(C)C)C(C)C)C(C)C)C(C)C (stereo partly shown) [Derivative 36]	complete inactivity	inactive	–	–	–
Galβ1-3GalNAcβ-O-TVPAAVVVA	–	–	completely inactive	–	–
Galβ1-4GlcNAcα-O-SLPAAVVVA	–	–	essentially equipotent	–	–
Neu5Ac α 2-3Galβ1-4-GlcNAcα-O-TVPAAVVVA	–	–	essentially equipotent	–	–
Neu5Acα2-3Galβ1-3GalNAcα-O-TVPAAVVVA	–	–	essentially equipotent	–	–
Neu5Acα2-3Galβ1-4GlcNAcα-O-SLPAAVVVA	–	–	essentially equipotent	–	–
TVPAAVVVA [nonglycosylated nonapeptide, reference compound]	–	–	completely inactive	no effect; also recorded: none of these cell lines was inhibited	no effect; also recorded: none of these cell lines was inhibited
